We go through 1 molecule from patent US7901716B2, “Active fraction having anti-cancer and anti-metastasis isolated from leaves and stems of ginseng” (MD Bioalpha Co., Ltd., priority 2002, dated 2011).

The procedure of this data set:
In the present experiment, the number of immune cells was measured in co-administration of MB40100, which was expected to reduce the immune inhibition occurring with administration of cyclophosphamide.
24 hours and 48 hours after administration of cyclophosphamide (250 mg/kg), MB40100 was abdominally administered in mice at the different dosages (10 mg/kg, 20 mg/kg), respectively. After 7 days, the mice were killed to separate bone marrow cells and splenocytes, and then the number of these cells was counted pursuant to the tryphan blue exclusion method.
Peripheral blood was rapidly gathered from the eyeball distal vein using a heparin-treated capillary glass tube and collected in a K3-EDTA-treated blood-gathering tube, then examined it with an automatic globule analyzer.

As to `O=P1(N(CCCl)CCCl)NCCCO1` (stereo not drawn) [cyclophosphamide], the “reduction of number of WBC compared with normal mouse” value (cyclophosphamide 250 mg/kg alone) is “about 30%”. In addition, under “cyclophosphamide 250 mg/kg alone, normal mouse 7800”, the “number of WBC in blood” value came to 5300. Also, under “cyclophosphamide alone”, the “number of splenocytes less than normal mouse” value is recorded as “about 72.8%”. Also, the “decrease of bone marrow cell density versus normal mouse” value (cyclophosphamide alone, 7 days after) came to 29.2%. Further, the “bone marrow cell density” value (cyclophosphamide alone, 7 days after, normal mouse 41.1×10^6) was 29.6×10^6 cells/ml. Further, the “number of thrombocytes less than normal mouse” value (cyclophosphamide alone, peripheral blood) is listed as “about 56%”.
